# Where “and” joins values, the source holds several entries; their conditions need not be identical. Identical values can stand only once.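 Each compound was tested at five concentrations against cells in 96-well plates for 48 hours. At the GI50, growth is halved. TGI marks complete inhibition of growth.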
# How the values were obtained:
# Assay in all cases: NCI anticancer screen, dose series, 48 h
# [1] = tested on: EKVX NSCLC
# [2] = tested on: HCC-2998 colon
# [3] = tested on: A498 renal
# [4] = tested on: A549 NSCLC
# [5] = tested on: HCT-116 colon
# [6] = tested on: SN12C renal
# [7] = tested on: CAKI-1 renal
# [8] = tested on: SK-MEL-5 melanoma
# [9] = tested on: RXF 393 renal
# [10] = tested on: BT-549 breast
smiles,measurement,setting,value
Cc1ccc(SC(C)/C=C/NNC2=NC(c3ccccc3)C(c3ccccc3)=NN2)cc1 (centres undefined),TGI,[1],> 100 µM
same,TGI,[2],98.2 µM
same,TGI,[3],> 100 µM
same,TGI,[4],> 100 µM
same,TGI,[5],> 100 µM
same,TGI,[6],> 100 µM
same,TGI,[7],46.6 µM
same,TGI,[8],31.4 µM
CC1=CC(/C=C(\C)CCCc2ccoc2)C2(OC(=O)C(C)=C2O)[C@H]2C1CC[C@@H]2C (some centres undefined),TGI,[9],60.5 µM
same,TGI,[1],> 100 µM
same,TGI,[2],74.2 µM
same,TGI,[3],49.2 µM
same,TGI,[4],> 100 µM
same,TGI,[5],38.1 µM
same,TGI,[6],60.8 µM
same,TGI,[7],> 100 µM
same,TGI,[8],46.4 µM
O=[N+]([O-])c1nccn1CC(O)c1ccc(F)cc1 (centres undefined),TGI,[9],> 100 µM
same,TGI,[1],> 100 µM
same,TGI,[3],> 100 µM
same,TGI,[4],> 100 µM
same,TGI,[6],> 100 µM
same,TGI,[7],> 100 µM
same,TGI,[8],> 100 µM
O=Cc1cc2c(cc1-c1c(C=O)ccc3c1OCO3)OCO2,TGI,[2],> 10 µM
same,TGI,[4],> 10 µM
same,TGI,[10],> 10 µM
same,TGI,[5],> 10 µM
same,TGI,[6],> 10 µM
same,TGI,[7],> 10 µM
same,TGI,[8],> 10 µM
C=CC1CC12C(=O)C1OC2(C)C2C(=O)c3cc4ccccc4cc3C(=O)C12 (centres undefined),GI50,[9],11.1 µM
same,TGI,[9],38 µM
same,GI50,[1],16.8 µM
same,TGI,[1],> 100 µM
same,GI50,[2],24.6 µM
same,TGI,[2],> 100 µM
same,GI50,[4],38.3 µM
same,TGI,[4],> 100 µM
same,GI50,[10],25 µM
same,TGI,[10],62.6 µM
same,GI50,[5],33.5 µM
same,TGI,[5],> 100 µM
same,GI50,[6],27.8 µM
same,TGI,[6],> 100 µM
same,GI50,[7],12 µM
same,TGI,[7],35.7 µM
C=C(C=O)[C@@H]1C2OC(=O)C(=C)[C@@H]2CC(O)[C@@]1(C)CC (some centres undefined),TGI,[9],10.3 µM
same,TGI,[1],51.1 µM
same,TGI,[2],31.1 µM
same,TGI,[3],39.5 µM
same,TGI,[4],> 100 µM
same,TGI,[5],14.5 µM
same,TGI,[6],32.6 µM
same,TGI,[7],24 µM
same,TGI,[8],19.8 µM
CC(O)C(N=Cc1ccccc1[O-])C(=O)[O-].CC(O)C(N=Cc1ccccc1[O-])C(=O)[O-].[Co+2] (centres undefined),GI50,[9],> 100 µM
same,TGI,[9],> 100 µM
same,GI50,[1],> 100 µM
same,TGI,[1],> 100 µM
same,GI50,[2],59.8 µM
same,TGI,[2],> 100 µM
same,GI50,[4],> 100 µM
same,TGI,[4],> 100 µM
same,GI50,[6],> 100 µM
same,TGI,[6],> 100 µM
O=S(O)CCCCSSCC(O)C(O)CSSCCCCS(=O)O (centres undefined),TGI,[9],38 µM and 89.8 µM
same,TGI,[1],> 100 µM and 93.1 µM
same,TGI,[3],> 100 µM
same,TGI,[4],> 100 µM
same,TGI,[6],> 100 µM
same,TGI,[7],> 100 µM
same,GI50,[8],4.97 µM and 11.2 µM
same,TGI,[8],18.1 µM and 26 µM
CCN(CC)CCOc1ccc(/C=C(\C#N)c2ccc(OCCN(CC)CC)cc2)cc1,TGI,[9],27.9 µM
same,TGI,[1],> 80.6 µM
same,TGI,[2],32.3 µM
same,TGI,[3],32.2 µM
same,TGI,[4],44.7 µM
same,TGI,[5],21.9 µM
same,TGI,[6],> 100 µM
same,TGI,[7],> 60.1 µM
same,TGI,[8],15.9 µM
CC(C)(C)OC(=O)NCC(=O)OCc1ccccc1,TGI,[2],> 100 µM
same,TGI,[3],> 100 µM
same,TGI,[4],> 100 µM
same,TGI,[5],> 100 µM
same,TGI,[6],> 100 µM
CCCCOC(=O)C1C(c2ccc(Cl)cc2)NC(c2ccc(Cl)cc2)C(C(=O)OCCCC)S1(=O)=O (centres undefined),TGI,[9],> 100 µM
same,TGI,[1],> 100 µM
same,TGI,[2],> 100 µM
same,TGI,[3],> 100 µM
same,TGI,[4],> 100 µM
same,TGI,[6],> 100 µM
same,TGI,[7],> 100 µM
same,TGI,[8],> 100 µM
COc1ccc(NC(=O)CCc2cc(-c3ccc(O)c(OC)c3)nc(NC#N)n2)cc1,TGI,[9],> 100 µM
same,TGI,[1],> 100 µM
same,TGI,[2],> 100 µM
same,TGI,[4],> 100 µM
same,TGI,[5],> 100 µM
same,TGI,[6],> 100 µM
same,TGI,[7],> 100 µM
O=[n+]1c2c(n([O-])c3ccccc31)CCCCCCCCCC2,TGI,[1],> 100 µM
same,TGI,[4],> 100 µM
same,TGI,[5],> 100 µM
same,TGI,[6],> 100 µM
same,TGI,[7],> 100 µM
COC(=O)c1cc2c3ccccc3n(C(C)=O)c2cn1,TGI,[9],87.1 µM
same,TGI,[1],> 100 µM
same,TGI,[2],> 100 µM
same,TGI,[4],> 100 µM
same,TGI,[5],> 100 µM
same,TGI,[6],> 100 µM
same,TGI,[7],48.9 µM
same,TGI,[8],> 100 µM
CCCCCCCCCC/C=C/CC(=O)SCCNC(=O)CCNC(=O)[C@@H](O)C(C)(C)COP(=O)(O)OP(=O)(O)OCC1OC(n2cnc3c(N)ncnc32)C(O)C1OP(=O)(O)O (some centres undefined),TGI,[9],> 10 µM
same,TGI,[1],> 10 µM
same,TGI,[2],> 10 µM
same,TGI,[3],> 10 µM
same,TGI,[4],> 10 µM
same,TGI,[5],> 10 µM
same,TGI,[6],> 10 µM
same,TGI,[7],> 10 µM
same,TGI,[8],> 10 µM
O=C1c2ccccc2C2(Br)C(=O)c3ccccc3C12 (centres undefined),TGI,[9],> 100 µM
same,TGI,[1],> 100 µM
same,TGI,[2],> 100 µM
same,TGI,[4],> 100 µM
same,TGI,[6],> 100 µM
same,TGI,[7],> 100 µM
same,TGI,[8],> 100 µM
COc1ccc(OC)c(NC(=O)C(=O)NNC(=O)c2sc(NNC(C)=O)nc2C)c1,TGI,[1],> 100 µM
same,TGI,[2],> 100 µM
same,TGI,[3],52.1 µM
same,TGI,[4],> 100 µM
same,TGI,[5],> 100 µM
same,TGI,[6],> 100 µM
same,TGI,[7],> 100 µM
same,TGI,[8],> 100 µM
COC(=O)C12C3C4C1C1C2C3C41C(=O)OC(C)(C)C (centres undefined),TGI,[9],> 100 µM
same,TGI,[1],> 100 µM
same,TGI,[2],> 100 µM
same,TGI,[3],> 100 µM
same,TGI,[4],> 100 µM
same,TGI,[5],70.3 µM
same,TGI,[6],> 100 µM
same,TGI,[7],> 100 µM
same,TGI,[8],> 100 µM
COc1cc(C(=O)c2cc(C)c3[nH]c4ccc(Cl)cc4c3c2C)cc(OC)c1OC,GI50,[1],0.254 µM
same,TGI,[1],23.4 µM
same,GI50,[2],0.0548 µM
same,TGI,[2],5.29 µM
same,GI50,[3],0.0242 µM
same,TGI,[3],0.0805 µM
same,GI50,[4],0.134 µM
same,TGI,[4],28.7 µM
same,GI50,[10],0.0423 µM
same,TGI,[10],4.55 µM
same,GI50,[5],0.0376 µM
same,TGI,[5],3.19 µM
same,GI50,[6],0.0509 µM
same,TGI,[6],13.2 µM
same,GI50,[7],0.0521 µM
same,TGI,[7],12.5 µM
same,GI50,[8],0.0361 µM
same,TGI,[8],0.196 µM
O=C(O)CNc1cc(-c2ccccc2)nc(NCC(=O)O)n1,TGI,[1],> 100 µM
same,TGI,[2],> 100 µM
same,TGI,[4],> 100 µM
same,TGI,[5],> 100 µM
same,TGI,[6],> 100 µM
same,TGI,[7],> 100 µM
same,TGI,[8],> 100 µM
O=C1CN=C(C[N+](=O)[O-])c2ccccc21,TGI,[1],> 100 µM
same,TGI,[3],> 100 µM
same,TGI,[4],> 100 µM
same,TGI,[5],> 100 µM
same,TGI,[6],> 100 µM
same,TGI,[7],> 100 µM
same,TGI,[8],> 100 µM
CS(=O)(=O)N/N=C/CN1C(=O)c2ccccc2C1=O,TGI,[1],> 100 µM
same,TGI,[2],> 100 µM
same,TGI,[3],> 100 µM
same,TGI,[4],> 100 µM
same,TGI,[5],> 100 µM
same,TGI,[6],> 100 µM
same,TGI,[7],> 100 µM
same,TGI,[8],> 100 µM
OCCN1CN(CCO)CN(c2nc(N3CN(CCO)CN(CCO)C3)nc(N3CN(CCO)CN(CCO)C3)n2)C1,GI50,[1],1.16 ng/mL
same,TGI,[1],2.87 ng/mL
same,GI50,[3],1.61 ng/mL
same,TGI,[3],4.96 ng/mL
same,TGI,[4],69.5 ng/mL
same,TGI,[10],1.55 ng/mL
same,GI50,[6],6.3 ng/mL
same,TGI,[6],7.22 ng/mL
same,GI50,[8],0.891 ng/mL
same,TGI,[8],1.74 ng/mL

# Source: PubChem BioAssay (NCI)
